Source: patent publication US20230266302A1, “SYNTHESIS AND USE OF N-BENZYL SULFONAMIDES” (THE UNIVERSITY OF TULSA, priority 2020, published 2023)

Experiments:
Assay in all cases: ATP level assay (CellTiter-Glo), percent of control
Assay type in all cases: cell-based
NCI-H196 (lung cancer) = settings: two hour incubation; for activity at 100 µM: NCI-H196, 2 h, compound alone, control DMSO, read-out: POC (percent of control) NCI-H196
SkBr3 (breast cancer) = settings: two hour incubation; for activity at 100 µM: Homo sapiens, SK-BR-3, 2 h, compound alone, control DMSO, read-out: POC (percent of control) SkBr3
H293 (kidney cancer) = settings: two hour incubation; for activity at 100 µM: 2 h, compound alone, control DMSO, read-out: POC (percent of control) H293
MCF7 (breast cancer) = settings: two hour incubation; for activity at 100 µM: Homo sapiens, MCF7, 2 h, compound alone, control DMSO, read-out: POC (percent of control) MCF7
HDF (normal cells) = settings: two hour incubation; for activity at 100 µM: 2 h, compound alone, control DMSO, read-out: POC (percent of control) HDF
MDA-MB (breast cancer) = settings: two hour incubation; for activity at 100 µM: 2 h, compound alone, control DMSO, read-out: POC (percent of control) MDA-MB
T47D (breast cancer) = settings: two hour incubation; for activity at 100 µM: Homo sapiens, T47D, 2 h, compound alone, control DMSO, read-out: POC (percent of control) T47D
PC3 (prostate cancer) = settings: two hour incubation; for activity at 100 µM: 2 h, compound alone, control DMSO, read-out: POC (percent of control) PC3
HeLa (cervical cancer) = settings: two hour incubation; for activity at 100 µM: Homo sapiens, HeLa, 2 h, compound alone, control DMSO, read-out: POC (percent of control) HeLa
[1] = tested on: MCF10A (non-cancerous breast); settings: two hour incubation; for activity at 100 µM: Homo sapiens, MCF-10A, 2 h, compound alone, control DMSO, read-out: POC (percent of control) MCF10A
[2] = tested on: BxPC3 (pancreatic cancer); settings: two hour incubation; for activity at 100 µM: Homo sapiens, BXPC-3, 2 h, compound alone, control DMSO, read-out: POC (percent of control) BxPC3
[3] = compound 100 uM + 2DG (about 10-20 mM)
[4] = compound 100 uM + rotenone (approximately 1.25 μM)

Structure (SMILES) | activity at 100 µM (NCI-H196 (lung cancer)) | POC (percent of control) NCI-H196 (NCI-H196 (lung cancer); [3]) | POC (percent of control) NCI-H196 (NCI-H196 (lung cancer); [4]) | activity at 100 µM (SkBr3 (breast cancer)) | POC (percent of control) SkBr3 (SkBr3 (breast cancer); [3]) | POC (percent of control) SkBr3 (SkBr3 (breast cancer); [4]) | activity at 100 µM (H293 (kidney cancer)) | POC (percent of control) H293 (H293 (kidney cancer); [3]) | POC (percent of control) H293 (H293 (kidney cancer); [4]) | activity at 100 µM (MCF7 (breast cancer)) | POC (percent of control) MCF7 (MCF7 (breast cancer); [3]) | POC (percent of control) MCF7 (MCF7 (breast cancer); [4]) | activity at 100 µM (HDF (normal cells)) | POC (percent of control) HDF (HDF (normal cells); [3]) | POC (percent of control) HDF (HDF (normal cells); [4]) | activity at 100 µM (MDA-MB (breast cancer)) | POC (percent of control) MDA-MB (MDA-MB (breast cancer); [3]) | POC (percent of control) MDA-MB (MDA-MB (breast cancer); [4]) | activity at 100 µM (T47D (breast cancer)) | POC (percent of control) T47D (T47D (breast cancer); [3]) | also measured
COc1ccc(S(=O)(=O)NCc2c[nH]c3ccccc23)cc1 [Compound 23, N-(1H-indol-3-ylmethyl)-4-methoxybenzenesulfonamide] | 93% | 83.5% of control | 85.6% of control | 85.9% | 75.5% of control | 87.7% of control | 92.1% | 47.4% of control | 65.3% of control | 96.3% | 93.6% of control | 121.1% of control | 74.6% | 90.6% of control | 119.9% of control | 98.6% | 85.9% of control | 83% of control | 54% | 46.6% of control | POC (percent of control) T47D (T47D (breast cancer); [4]): 71.7% of control; activity at 100 µM (PC3 (prostate cancer)): 77.3%; POC (percent of control) PC3 (PC3 (prostate cancer); [3]): 92.9% of control; POC (percent of control) PC3 (PC3 (prostate cancer); [4]): 87.9% of control; activity at 100 µM (HeLa (cervical cancer)): 84.1%; POC (percent of control) HeLa (HeLa (cervical cancer); [3]): 86.9% of control; POC (percent of control) HeLa (HeLa (cervical cancer); [4]): 93.7% of control; activity at 100 µM [1]: 85%; POC (percent of control) MCF10A [1, 3]: 82.8% of control; POC (percent of control) MCF10A [1, 4]: 85.1% of control; activity at 100 µM [2]: 95.9%; POC (percent of control) BxPC3 [2, 4]: 78.5% of control
COc1ncccc1CNS(=O)(=O)c1ccccc1 [Compound 13, N-[(2-methoxypyridin-3-yl)methyl]benzenesulfonamide] | 87.6% | 127.4% of control | 99.7% of control | 101% | 87.2% of control | 96.5% of control | 101% | 69.4% of control | 81.1% of control | 127% | 89.7% of control | 116.5% of control | 96.5% | 104.2% of control | 98.3% of control | 101% | 81.9% of control | 103.8% of control | 84.3% | 88.8% of control | POC (percent of control) T47D (T47D (breast cancer); [4]): 90% of control; activity at 100 µM (PC3 (prostate cancer)): 82.2%; POC (percent of control) PC3 (PC3 (prostate cancer); [3]): 97.3% of control; POC (percent of control) PC3 (PC3 (prostate cancer); [4]): 101.2% of control; activity at 100 µM (HeLa (cervical cancer)): 94.6%; POC (percent of control) HeLa (HeLa (cervical cancer); [3]): 90.7% of control; POC (percent of control) HeLa (HeLa (cervical cancer); [4]): 94.1% of control; activity at 100 µM [1]: 94.8%; POC (percent of control) MCF10A [1, 3]: 96.1% of control; POC (percent of control) MCF10A [1, 4]: 84% of control; activity at 100 µM [2]: 91.2%; POC (percent of control) BxPC3 [2, 3]: 74.1% of control; POC (percent of control) BxPC3 [2, 4]: 55.3% of control
CC(=O)n1cc(CNS(=O)(=O)c2ccc(Cl)cc2)c2ccccc21 [Compound 4, N-[(1-acetyl-1H-indole-3-yl)methyl]-4-chlorobenzenesulfonamide] | 72.5% | 49.6% of control | 61.5% of control | 79.1% | 87.5% of control | 96.8% of control | 88.6% | 60% of control | 65.8% of control | 108% | 82.2% of control | 79.2% of control | 88.1% | 66.8% of control | 88.6% of control | 94.7% | 63.6% of control | 71.9% of control | 48.9% | 36.3% of control | POC (percent of control) T47D (T47D (breast cancer); [4]): 45.8% of control; activity at 100 µM (PC3 (prostate cancer)): 93.7%; POC (percent of control) PC3 (PC3 (prostate cancer); [3]): 61.9% of control; POC (percent of control) PC3 (PC3 (prostate cancer); [4]): 61.3% of control; activity at 100 µM (HeLa (cervical cancer)): 90.6%; POC (percent of control) HeLa (HeLa (cervical cancer); [3]): 67.4% of control; POC (percent of control) HeLa (HeLa (cervical cancer); [4]): 84.3% of control; activity at 100 µM [1]: 59.7%; POC (percent of control) MCF10A [1, 3]: 84.8% of control; POC (percent of control) MCF10A [1, 4]: 89.8% of control; activity at 100 µM [2]: 88.4%; POC (percent of control) BxPC3 [2, 4]: 71.1% of control
O=S(=O)(NCc1c[nH]c2ccccc12)c1ccccc1 [Compound 3, N-[(1H-indol-3-yl)methyl]benzenesulfonamide] | 89.6% | 55% of control | 89.2% of control | 72.8% | 79.4% of control | 97.1% of control | 74.3% | 42.8% of control | 69.3% of control | 105% | 74.5% of control | 97.3% of control | 84.5% | 72.7% of control | 91.9% of control | 92.4% | 81.8% of control | 102.7% of control | 34.9% | 37.1% of control | POC (percent of control) T47D (T47D (breast cancer); [4]): 58.7% of control; activity at 100 µM (PC3 (prostate cancer)): 85%; POC (percent of control) PC3 (PC3 (prostate cancer); [3]): 59.4% of control; POC (percent of control) PC3 (PC3 (prostate cancer); [4]): 65.1% of control; activity at 100 µM (HeLa (cervical cancer)): 99.2%; POC (percent of control) HeLa (HeLa (cervical cancer); [3]): 67.6% of control; POC (percent of control) HeLa (HeLa (cervical cancer); [4]): 85.5% of control; activity at 100 µM [1]: 62.5%; POC (percent of control) MCF10A [1, 3]: 72.7% of control; POC (percent of control) MCF10A [1, 4]: 110.5% of control; activity at 100 µM [2]: 96.8%; POC (percent of control) BxPC3 [2, 4]: 84.5% of control
